The text below walks through data of ChEMBL document CHEMBL1141634, “Cathepsin B inhibitory activities of phthalates isolated from a marine Pseudomonas strain” (Bioorg Med Chem Lett, 2008).

A word on the IC50: it is the concentration at which inhibition is half-maximal. Low values mean inhibition by little substance, high ones a need for much substance.

Experiment [1] deals with Cathepsin B (Mus musculus, UniProt P10605). Description: Inhibition of cathepsin B in mouse B16F10 cells. It is filed as cell-based, B16-F10.
Cathepsin B (Mus musculus, UniProt P10605), sequence (P10605 whole entry): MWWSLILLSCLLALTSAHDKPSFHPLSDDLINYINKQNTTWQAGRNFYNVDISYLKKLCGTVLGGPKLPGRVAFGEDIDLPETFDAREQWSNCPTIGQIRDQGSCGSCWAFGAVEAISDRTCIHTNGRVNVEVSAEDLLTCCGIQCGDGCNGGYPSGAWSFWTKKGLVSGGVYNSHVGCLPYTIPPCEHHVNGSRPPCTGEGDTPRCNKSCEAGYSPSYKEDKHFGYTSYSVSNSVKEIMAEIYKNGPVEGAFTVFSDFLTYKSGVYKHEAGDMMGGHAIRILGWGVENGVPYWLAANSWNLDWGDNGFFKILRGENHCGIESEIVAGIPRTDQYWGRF
Another experiment has as its system B16-F10. Description: Cytotoxicity against mouse B16F10 cells by MTT assay. It is filed as functional. In general terms: Tetrazolium assays rely on reduction of a dye to a coloured formazan, in cell work by metabolically active cells.
The target of experiment [2] is Cathepsin B (Homo sapiens, UniProt P07858). Description: Inhibition of cathepsin B.

As for `CCCC[C@@H](CC)COC(=O)c1ccccc1C(=O)OC[C@@H](CC)CCCC` [BIS(2-ETHYLHEXYL)PHTHALATE], the IC50 is 140 µM on Cathepsin B [1] and 380 µM on Cathepsin B [2]. Besides, in the experiment with B16-F10, the Activity is listed as 7.34%.
The matching figures for `CCCCOC(=O)c1ccccc1C(=O)OCCCC` [DIBUTYL PHTHALATE]: 230 µM, 420 µM and 9.45%.
